Reference: ChEMBL document CHEMBL3217602, “20-O-IngenolEZ, a catalytic topoisomerase II inhibitor, specifically inhibits cell proliferation and induces double-strand DNA breaks in BLM-/- cells” (2011)
The source made the active and inactive calls. The rule behind the calls is not given here.

Columns and labels:
DT40 [1] = experiment: Induction of double-strand DNA breaks in chicken BLM-/- DT40 cell nuclear fraction assessed as gamma-H2AX phosphorylation at 0.9 uM after 24 hrs by immunoblot analysis; type: functional, cell-based; settings: Gallus gallus
[2] = Induction of apoptosis in chicken BLM-/- DT40 cells at 0.9 uM after 24 hrs by DAPI staining based immunofluorescence assay; type: functional, Gallus gallus
DT40 [3] = experiment: Inhibition of chicken WRN-/- DT40 cell proliferation at 200 uM after 2 days by MTT assay; type: functional, cell-based; settings: Gallus gallus
DT40 [4] = experiment: Inhibition of chicken BLM-/- DT40 cell proliferation at 200 uM after 2 days by MTT assay; type: functional, cell-based; settings: Gallus gallus
DT40 [5] = experiment: Inhibition of chicken BLM-/- DT40 cell proliferation at 2 to 60 uM after 2 days by MTT assay; type: functional, cell-based; settings: Gallus gallus
DT40 [6] = experiment: Inhibition of chicken wild type DT40 cell proliferation at 2 to 100 uM after 2 days by MTT assay; type: functional, cell-based; settings: Gallus gallus
[7] = (§1) Inhibition of chicken wild type DT40 cell proliferation at 200 uM after 2 days by MTT assay; type: functional; settings: Gallus gallus, DT40, 48 h
DT40 [8] = experiment: Induction of double-strand DNA breaks in chicken BLM-/- DT40 cell nuclear fraction assessed as gamma-H2AX phosphorylation at 200 uM after 24 hrs by immunoblot analysis; type: functional, cell-based; settings: Gallus gallus
DT40 [9] = experiment: Inhibition of chicken WRN-/- DT40 cell proliferation at 2 to 100 uM after 2 days by MTT assay; type: functional, cell-based; settings: Gallus gallus
DT40 [10] = experiment: Inhibition of chicken BLM-/- DT40 cell proliferation at 100 uM after 2 days by MTT assay; type: functional, cell-based; settings: Gallus gallus
DT40 [11] = experiment: Induction of apoptosis in chicken BLM-/- DT40 cells at 200 uM after 24 hrs by DAPI staining based immunofluorescence assay; type: functional, cell-based; settings: Gallus gallus
DT40 [12] = experiment: as §1; type: functional; settings: Gallus gallus

SMILES	Activity (DT40 [1])	Activity [2]	inhibition (DT40 [3])	inhibition (DT40 [4])	inhibition (DT40 [5])	inhibition (DT40 [6])	inhibition at 200 µM [7]	Activity (DT40 [8])	inhibition (DT40 [9])	inhibition (DT40 [10])	Activity (DT40 [11])	inhibition (DT40 [12])
COc1cccc2c1C(=O)c1c(O)c3c(c(O)c1C2=O)C[C@@](O)(C(=O)CO)C[C@@H]3O[C@H]1C[C@H](N)[C@H](O)[C@H](C)O1 [DOXORUBICIN]	Active	60%	–	–	–	–	–	–	–	–	–	–
CCCCC/C=C\C=C\C(=O)OCC1=C[C@@H]2C(=O)[C@]3(C=C(C)[C@H](O)[C@@]3(O)[C@@H]1O)[C@H](C)C[C@@H]1[C@H]2C1(C)C	–	–	inactive	Active	inactive	inactive	50%	Active	inactive	Active	Active	–
C[C@H]([C@H](C)N1CC(=O)NC(=O)C1)N1CC(=O)NC(=O)C1	–	–	Active	Active	–	–	–	–	–	–	–	Active
